According to publication PMC6718946 (Toxicology Reports, 2019):
Several values for one entry are separate records, joined by “and”; a condition that tells them apart may be missing. Equal values may be shown once. Read-outs that look alike come from different tables or passages of the source.

How the values were obtained:
AChE [1] = conditions: cited from earlier work
Artemia salina [2] = conditions: in vivo; cited from earlier work
AChE [3] = conditions: cited from earlier work; remark: listed apart in the source
[4] = molecular target: acetylcholinesterase (AChE) (Electrophorus electricus, UniProt O42275); conditions: for IC50: estimated from Fig. 1
Sequence of acetylcholinesterase (AChE) (O42275 24-633): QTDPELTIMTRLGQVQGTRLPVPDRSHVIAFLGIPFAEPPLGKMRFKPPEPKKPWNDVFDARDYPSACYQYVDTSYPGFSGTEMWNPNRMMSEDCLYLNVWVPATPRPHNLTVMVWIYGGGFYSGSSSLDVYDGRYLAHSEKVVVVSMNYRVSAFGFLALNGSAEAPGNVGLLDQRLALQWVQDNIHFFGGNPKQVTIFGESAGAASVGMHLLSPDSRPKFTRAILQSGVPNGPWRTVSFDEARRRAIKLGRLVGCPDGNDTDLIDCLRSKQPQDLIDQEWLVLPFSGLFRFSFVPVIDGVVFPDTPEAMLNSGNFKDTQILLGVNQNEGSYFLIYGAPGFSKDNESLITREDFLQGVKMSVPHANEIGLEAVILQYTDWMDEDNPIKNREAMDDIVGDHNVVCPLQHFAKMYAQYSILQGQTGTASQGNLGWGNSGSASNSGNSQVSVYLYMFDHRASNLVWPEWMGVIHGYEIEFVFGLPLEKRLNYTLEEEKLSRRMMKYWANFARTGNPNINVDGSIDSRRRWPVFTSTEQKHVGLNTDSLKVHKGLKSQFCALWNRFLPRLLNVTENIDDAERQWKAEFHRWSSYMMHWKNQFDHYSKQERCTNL

Artemia salina [5] = test: Toxicology assay on Artemia salina model; conditions: for Mortality of A. salina: 24 h
AChE [6] = conditions: cited from earlier work; remark: listed apart in the source

Compound: CC[N+](C)(C)c1cccc(O)c1 [edrophonium]
- Inhibition mechanism (AChE [1]): competitive

Compound: CNC(=O)Oc1ccc2c(c1)[C@]1(C)CCN(C)[C@@H]1N2C [Eserine]
- Effect on larvae (Artemia salina [2]): larval paralysis
- Inhibition of AChE activity in Artemia salina (Artemia salina [2]): strongly inhibit

Compound: C=CCc1ccc(OC)cc1 [estragole]
- Inhibition mechanism (AChE [3]): mixed AChE inhibition

Compound: O=c1cccc2n1CC1CC2CN(C(=S)NC23CC4CC(CC(C4)C2)C3)C1 (centres unmarked) [Compound U-12, N-1-Adamantylcytisine-12-thiocarbamide]
- Inhibition mechanism ([4]; Lineweaver-Burk analysis): Uncompetitive
- IC50 ([4]; 30 °C, pH 8.0, 1.25% DMSO): ~3390 µM and 3390 µM
- IC50 ([4]; expressed in g L^−1): ≈ 1.4 g L^−1
- IC50 ([4]; expressed in ppm): 1400 ppm
- Ki ([4]; read-out: Ki (inhibition constant), Lineweaver-Burk analysis): 70 µM

Compound: 1-Hydroxyquinopimaric acid [Compound U-201]
- Inhibition mechanism ([4]; Lineweaver-Burk analysis): Competitive

Compound: C=CCNC(=O)N1C[C@H]2C[C@H](C1)c1cccc(=O)n1C2 [Compound A-63, N-Allylcytisine-12-carbamide]
- Inhibition mechanism ([4]; Lineweaver-Burk analysis): mixed
- Inhibition mechanism ([4]; Lineweaver-Burk analysis, listed as A63): Mixed inhibition
- IC50 ([4]; 30 °C, pH 8.0, 1.25% DMSO): ~1470 µM and 1470 µM
- IC50 ([4]; expressed in g L^−1): ≈ 0.4 g L^−1
- IC50 ([4]; expressed in ppm): 400 ppm
- α´ (effect on Vmax) ([4]; mixed inhibition parameter): 0.05
- Mortality of A. salina (Artemia salina [5]; at 1000 ppm): 3%
- Mortality of A. salina (Artemia salina [5]; at 2000 ppm): 3%
- Toxicity classification according to Artemia salina test (Artemia salina [5]; class by percent mortality of nauplii): non-toxic (0–10% non-toxic compound)
- Effect on A. salina viability (Artemia salina [5]; concentration less than 1000 ppm): did not affect
- Effect on A. salina viability (Artemia salina [5]; concentration less than 2000 ppm): not affected

Compound: C[n+]1c2ccccc2cc2ccccc21 [N-methylacridinium]
- Inhibition mechanism (AChE [1]): competitive

Compound: Cytisine-12-carbamide [Compound A-36]
- Inhibition mechanism ([4]; Lineweaver-Burk analysis): Competitive

Compound: CC12CCC(CC1=O)C2(C)C (centres unmarked) [camphor]
- Inhibition mechanism (AChE [3]): mixed AChE inhibition

Compound: C=C(C)C1CC=C(C)C(=O)C1 (centres unmarked) [S-carvone]
- Inhibition mechanism (AChE [3]): mixed AChE inhibition

Compound: COc1ccc2c3c1O[C@H]1C[C@@H](O)C=C[C@@]31CCN(C)C2 [galanthamine]
- Inhibition mechanism (AChE [6]): competitive
